According to patent US20060008483A1, “Dispersions of lipids for use as therapeutic and cosmetic agents and intracellular delivery vehicles” (Biotech Tools SA, priority 2002, published 2006):

Legend:
[1] = system: COS-7L cells (monkey fibroblasts); assay: Cytotoxicity in the micellar transfection experiment, determined as in Example 2; type: cell-based; conditions: transfection conditions of Example 12
Protocol: The resulting titrated liposomes were cooled and then passed through a 0.2 μm filter (in order to eliminate large particles) and an average liposome size of 90 nm was measured. Filtered liposomes were then packed in sterile vials and stored at 4° C. […] Cytotoxicity was determined by means of a (3-(4,5-dimethylthiazol-2-yl)-2,5-diphenyl tetrazolium bromide assay, using a kit commercially available from Promega Benelux (Leyden, The Netherlands). COS-7 monkey fibroblast cell survival was expressed as the amount of dye reduction relative to that of the untreated control cells. The titrated liposomes are not toxic on COS-7 cells, as determined by the Cytotox 96 non-radioactive cytotoxy assay G 1780.
COS-7L cells (monkey fibroblasts) were grown in DMEM supplemented with 10% heat inactivated foetal bovine serum and penicellin 100 IU/mL-streptomycin 100 μg/mL, and were maintained at 37° C. in a humidified 5% incubator. One day prior to the transfection experiment, the cells were seeded in a 24-well culture dish and allowed to reach at least 80% confluency.
(§1) Transfection efficiency was measured in terms of beta-galactosidase activity using the beta-galactosidase activity assay described in Example 5 above. Cytotoxicity was determined as described in Example 2 above.

[2] = system: COS-7L cells (monkey fibroblasts); assay: Transfection of fibroblast cells with micellar dispersions of an amidinium salt, beta-galactosidase activity assay; type: cell-based; conditions: pCMV-β plasmid, relative to Lipofectamine plus, 3 h + 20 h incubation
Protocol: Functional transfection efficiency was then measured by means of a beta-galactosidase (hereinafter referred as β-GAL) activity assay as follows: cells were lysed by adding 250 μl of a lysis buffer (0.1 M potassium phosphate, 0.5% Triton® X-100, 0.1% deoxycholate, pH 7.0). The cell lysate (50 μl) was mixed with 50 μl o-nitrophenyl-β-D-galactopyranoside (1.54 mg/ml in 0.1 potassium phosphate buffer, pH 7.0) and incubated at 37° C. for 30 minutes. The reaction was terminated by adding 160 μl of 1 M Na2CO3 and absorbance was determined using a spectrophotometer at 405 nm. β-GAL activity was calculated using a β-GAL standard curve.
Immediately before the transfection experiments, the amidinium salt of Example 9 was dissolved at a concentration of 0.1 mg/mL in water containing 5.0 g/l glucose and 0.1 mg/mL protamine sulfate. The solution was successively vortexed, heated during 15 minutes at 50° C. and then cooled at 20° C.
COS-7L cells (monkey fibroblasts) were grown in DMEM supplemented with 10% heat inactivated foetal bovine serum and penicellin 100 IU/mL-streptomycin 100 μg/mL, and were maintained at 37° C. in a humidified 5% incubator. […]
as §1

[3] = system: Chinese hamster Ovary cells or K562 human myeloid cells; conditions: MLV, WO 95/17378; cited from earlier work
[4] = Critical micellar concentration by surface tension (langmuir balance); type: physicochemical; conditions: 25° C.
Protocol: The amidinium salt of example 9 was dissolved at various concentrations in either water pH 7.0, PB (20 mM phosphate, pH 7.3) or in PBS (20 mM phosphate buffer, 150 mM NaCl, pH 7.3).
A langmuir balance (Krüss K12) was used to measure the surface tension of a solution of increasing amino-amidine concentration. […] The corresponding concentration was taken as CMC.
To determine the effect of protamine sulfate on the CMC protamine sulfate (PS) was added at a final concentration of 0.2 mg/mL to solutions of increasing concentration of the amidinium salt of Example 9.

CMC ([4]; in PB (20 mM phosphate, pH 7.3)) [M] | CMC ([4]; in PBS (20 mM phosphate buffer, 150 mM NaCl, pH 7.3)) [M] | CMC ([4]; in PBS + protamine sulfate 0.2 mg/mL) [M] | CMC ([4]; in water pH 7.0, in M) | SMILES | Toxicity [1] | β-gal relative activity [2] [%] | transfection efficiencies [3] [%]
 |  |  |  | CCCCCCCCCCCCCCN=C(CCNCCCCCCCCCCCCCC)NC(C)(C)C [DiC14iPr, N-terbutyl-N′-tetradecyl-3-tetradecyl-aminopropionamidine] | None | 150 | 60 to 68
5.25e-05 | 6.75e-05 | 2e-05 | 5×10^−4 | CCCCCCCCCCCCCCN=C(CCNCCCCCCCCCCCCCC)NC(C)(C)C [Example 9, N-terbutyl-N′-tetradecyl-3-tetradecyl-aminopropionamidine] |  |  | 
